Reference: publication PMC12858634, “Functional characterisation of Target of Rapamycin (TOR) signalling in Physcomitrella” (Plant Cell Reports, 2026)

Molecular target: T1, PpFKBP12 (Physcomitrium patens, UniProt A0A2K1L9Z1, M56K/G57Q/R58E)
T1 construct: gene LOC112274967
Assay: yeast fkbp12 deletion complementation, growth spot assay
Format: cell-based
Conditions: rapamycin 100 or 200 nM, galactose medium, 30 °C, 5 days; acts as FKBP12-rapamycin complex on host yeast TOR

T1 sequence (A0A2K1L9Z1 entry or part of it M56K/G57Q/R58E): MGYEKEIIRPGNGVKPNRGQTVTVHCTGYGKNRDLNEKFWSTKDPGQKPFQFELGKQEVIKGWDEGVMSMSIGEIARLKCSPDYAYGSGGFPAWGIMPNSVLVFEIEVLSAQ

## CO[C@H]1C[C@@H]2CC[C@@H](C)[C@@](O)(O2)C(=O)C(=O)N2CCCC[C@H]2C(=O)O[C@H]([C@H](C)C[C@@H]2CC[C@@H](O)[C@H](OC)C2)CC(=O)[C@H](C)/C=C(\C)[C@@H](O)[C@@H](OC)C(=O)[C@H](C)C[C@H](C)/C=C/C=C/C=C/1C [rapamycin]
  yeast fkbp12 deletion complementation, growth spot assay: all but PpFKBP12^W40D complemented the rapamycin-resistant phenotype of fkbp12Δ cells
